Experimental data from patent US9603364B2 (Dow AgroSciences LLC, priority 2013, dated 2017).

Assays:
Assay in all cases: General post-emergent herbicidal activity, foliar application
Format in all cases: in vivo
Oryza sativa L. (rice) = settings: Oryza sativa, 336 h, scored after 14 days, read-out: % Visual Growth Reduction ORYSA; for plant injury at 35 g/ha: 35 g ai/ha; for plant injury at 70 g/ha: 70 g ai/ha; for plant injury at 140 g/ha: 140 g ai/ha; for plant injury at 280 g/ha: 280 g ai/ha
How it was run: (§1)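 Injury rated visually 14 days after treatment on a 0 (none) to 100% (complete kill) scale against untreated plants; greenhouse-grown, sub-irrigated to avoid wash-off. Foliar spray in aqueous acetone/DMSO with isopropanol, crop oil concentrate and Triton X-155, at a highest rate and 2-fold serial dilutions down to 1/16×.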

Zea mays L. (corn) = settings: 336 h, scored after 14 days, read-out: % Visual Growth Reduction ZEAMX; for plant injury at 35 g/ha: 35 g ai/ha; for plant injury at 70 g/ha: 70 g ai/ha; for plant injury at 140 g/ha: 140 g ai/ha; for plant injury at 280 g/ha: 280 g ai/ha
How it was run: as §1

[1] = system: Viola tricolor L. (pansy); settings: for pest or weed control at 35 g/ha / pest or weed control at 70 g/ha / pest or weed control at 140 g/ha / pest or weed control at 280 g/ha: Viola tricolor, 336 h, foliar post-emergent, scored after 14 days, read-out: % Visual Growth Reduction VIOTR; for pest or weed control at 35 g/ha: 35 g ai/ha; for pest or weed control at 70 g/ha: 70 g ai/ha; for pest or weed control at 140 g/ha: 140 g ai/ha; for pest or weed control at 280 g/ha: 280 g ai/ha; for GR80 Value VIOTR: calculated by probit analysis, dose for 80% visual injury, may be extrapolated
How it was run: (§2)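 Compounds in acetone/DMSO 97:3 were diluted into aqueous spray mix with isopropanol, crop oil concentrate and Triton X-155, then serially diluted to 1/2×–1/16× of the top rate and sprayed on foliage. Plants were kept in greenhouse with sub-irrigation. Injury was scored visually (0–100%) at 14 days; GR20/GR50/GR80 came from probit analysis.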

[2] = system: Amaranthus retroflexus L. (pigweed, redroot); settings: for pest or weed control at 35 g/ha / pest or weed control at 70 g/ha / pest or weed control at 140 g/ha / pest or weed control at 280 g/ha: Amaranthus retroflexus, 336 h, foliar post-emergent, scored after 14 days, read-out: % Visual Growth Reduction AMARE; for pest or weed control at 35 g/ha: 35 g ai/ha; for pest or weed control at 70 g/ha: 70 g ai/ha; for pest or weed control at 140 g/ha: 140 g ai/ha; for pest or weed control at 280 g/ha: 280 g ai/ha; for GR80 Value AMARE: calculated by probit analysis, dose for 80% visual injury, may be extrapolated
How it was run: as §2

[3] = system: Euphorbia heterophylla L. (poinsettia, wild); settings: for pest or weed control at 35 g/ha / pest or weed control at 70 g/ha / pest or weed control at 140 g/ha / pest or weed control at 280 g/ha: Euphorbia heterophylla, 336 h, foliar post-emergent, scored after 14 days, read-out: % Visual Growth Reduction EPHHL; for pest or weed control at 35 g/ha: 35 g ai/ha; for pest or weed control at 70 g/ha: 70 g ai/ha; for pest or weed control at 140 g/ha: 140 g ai/ha; for pest or weed control at 280 g/ha: 280 g ai/ha; for GR80 Value EPHHL: calculated by probit analysis, dose for 80% visual injury, may be extrapolated
How it was run: as §2

[4] = system: Chenopodium album L. (lambsquarters, common); settings: for pest or weed control at 35 g/ha / pest or weed control at 70 g/ha / pest or weed control at 140 g/ha / pest or weed control at 280 g/ha: Chenopodium album, 336 h, foliar post-emergent, scored after 14 days, read-out: % Visual Growth Reduction CHEAL; for pest or weed control at 35 g/ha: 35 g ai/ha; for pest or weed control at 70 g/ha: 70 g ai/ha; for pest or weed control at 140 g/ha: 140 g ai/ha; for pest or weed control at 280 g/ha: 280 g ai/ha; for GR80 Value CHEAL: calculated by probit analysis, dose for 80% visual injury, may be extrapolated
How it was run: as §2

[5] = system: Echinochloa crus-galli (L.) Beauv. (barnyardgrass); settings: for pest or weed control at 35 g/ha / pest or weed control at 70 g/ha / pest or weed control at 140 g/ha / pest or weed control at 280 g/ha: Echinochloa crus-galli, 336 h, foliar post-emergent, scored after 14 days, read-out: % Visual Growth Reduction ECHCG; for pest or weed control at 35 g/ha: 35 g ai/ha; for pest or weed control at 70 g/ha: 70 g ai/ha; for pest or weed control at 140 g/ha: 140 g ai/ha; for pest or weed control at 280 g/ha: 280 g ai/ha; for GR80 Value ECHCG: calculated by probit analysis, dose for 80% visual injury, may be extrapolated
How it was run: as §2

[6] = system: Helianthus annuus L. (sunflower, common); settings: for pest or weed control at 35 g/ha / pest or weed control at 70 g/ha / pest or weed control at 140 g/ha / pest or weed control at 280 g/ha: Helianthus annuus, 336 h, foliar post-emergent, scored after 14 days, read-out: % Visual Growth Reduction HELAN; for pest or weed control at 35 g/ha: 35 g ai/ha; for pest or weed control at 70 g/ha: 70 g ai/ha; for pest or weed control at 140 g/ha: 140 g ai/ha; for pest or weed control at 280 g/ha: 280 g ai/ha; for GR80 Value HELAN: calculated by probit analysis, dose for 80% visual injury, may be extrapolated
How it was run: as §2

Structure (SMILES)	plant injury at 70 g/ha (Oryza sativa L. (rice)) [%]	plant injury at 140 g/ha (Oryza sativa L. (rice)) [%]	plant injury at 70 g/ha (Zea mays L. (corn)) [%]	plant injury at 140 g/ha (Zea mays L. (corn)) [%]	pest or weed control at 70 g/ha [1] [%]	pest or weed control at 140 g/ha [1] [%]	GR80 Value VIOTR [1] [g ai/ha]	pest or weed control at 70 g/ha [2] [%]	pest or weed control at 140 g/ha [2] [%]	GR80 Value AMARE [2] [g ai/ha]	pest or weed control at 70 g/ha [3] [%]	pest or weed control at 140 g/ha [3] [%]	GR80 Value EPHHL [3] [g ai/ha]	pest or weed control at 70 g/ha [4] [%]	pest or weed control at 140 g/ha [4] [%]	GR80 Value CHEAL [4] [g ai/ha]	pest or weed control at 70 g/ha [5] [%]	pest or weed control at 140 g/ha [5] [%]	GR80 Value ECHCG [5] [g ai/ha]	pest or weed control at 140 g/ha [6] [%]	other results
COC(=O)c1nc(CF)c(F)c(N)c1Cl [Compound F14, Methyl 4-amino-3-chloro-5-fluoro-6-(fluoromethyl)picolinate]	0	0	0	20	0	50	334	80	90	89.2	100	100	53.9	90	100	16.8	0	15	411	95	plant injury at 35 g/ha (Oryza sativa L. (rice)): 0%; plant injury at 280 g/ha (Oryza sativa L. (rice)): 0%; plant injury at 35 g/ha (Zea mays L. (corn)): 0%; plant injury at 280 g/ha (Zea mays L. (corn)): 45%; pest or weed control at 35 g/ha [1]: 0%; pest or weed control at 280 g/ha [1]: 60%; pest or weed control at 35 g/ha [2]: 70%; pest or weed control at 280 g/ha [2]: 100%; pest or weed control at 35 g/ha [3]: 10%; pest or weed control at 280 g/ha [3]: 100%; pest or weed control at 35 g/ha [4]: 85%; pest or weed control at 280 g/ha [4]: 100%; pest or weed control at 35 g/ha [5]: 0%; pest or weed control at 280 g/ha [5]: 60%; pest or weed control at 35 g/ha [6]: 85%; pest or weed control at 70 g/ha [6]: 90%; pest or weed control at 280 g/ha [6]: 95%; GR80 Value HELAN [6]: 18 g ai/ha
COC(=O)c1nc(C(C)F)c(F)c(N)c1Cl (centres unmarked) [Compound F15, Methyl 4-amino-3-chloro-5-fluoro-6-(1-fluoroethyl)picolinate]	0	0	0	0	45	55	>140	90	95	22.3	85	90	75.1	85	80	48.6	20	30	>140	100	plant injury at 35 g/ha (Oryza sativa L. (rice)): 0%; plant injury at 35 g/ha (Zea mays L. (corn)): 0%; pest or weed control at 35 g/ha [1]: 25%; pest or weed control at 35 g/ha [2]: 90%; pest or weed control at 35 g/ha [3]: 55%; pest or weed control at 35 g/ha [4]: 80%; pest or weed control at 35 g/ha [5]: 0%; pest or weed control at 35 g/ha [6]: 80%; pest or weed control at 70 g/ha [6]: 90%; GR80 Value HELAN [6]: 24.4 g ai/ha
CC(F)c1nc(C(=O)O)c(Cl)c(N)c1Cl (centres unmarked) [Compound F16, 4-Amino-3,5-dichloro-6-(1-fluoroethyl)picolinic acid]	0	0	0	0	0	0	>280	90	90	51.4	0	0	373	100	100	<17.5	0	0	>280	90	plant injury at 280 g/ha (Oryza sativa L. (rice)): 0%; plant injury at 280 g/ha (Zea mays L. (corn)): 0%; pest or weed control at 280 g/ha [1]: 0%; pest or weed control at 280 g/ha [2]: 100%; pest or weed control at 280 g/ha [3]: 50%; pest or weed control at 280 g/ha [4]: 100%; pest or weed control at 280 g/ha [5]: 0%; pest or weed control at 70 g/ha [6]: 80%; pest or weed control at 280 g/ha [6]: 100%; GR80 Value HELAN [6]: 31.4 g ai/ha
COC(=O)c1nc(C(F)=C(F)F)cc(N)c1Cl [Compound F17]	–	0	–	0	–	0	–	–	0	–	–	0	–	–	0	–	–	0	–	60	–
COC(=O)c1nc(C(C)F)cc(N)c1Cl (centres unmarked) [Compound F19, Methyl 4-amino-3-chloro-6-(1-fluoroethyl)picolinate]	0	0	0	90	100	100	34.3	100	100	19.1	90	100	72.3	100	100	<17.5	0	20	>280	50	plant injury at 35 g/ha (Oryza sativa L. (rice)): 0%; plant injury at 280 g/ha (Oryza sativa L. (rice)): 0%; plant injury at 35 g/ha (Zea mays L. (corn)): 0%; plant injury at 280 g/ha (Zea mays L. (corn)): 100%; pest or weed control at 35 g/ha [1]: 100%; pest or weed control at 280 g/ha [1]: 100%; pest or weed control at 35 g/ha [2]: 100%; pest or weed control at 280 g/ha [2]: 100%; pest or weed control at 35 g/ha [3]: 10%; pest or weed control at 280 g/ha [3]: 100%; pest or weed control at 35 g/ha [4]: 100%; pest or weed control at 280 g/ha [4]: 100%; pest or weed control at 35 g/ha [5]: 0%; pest or weed control at 280 g/ha [5]: 25%; pest or weed control at 35 g/ha [6]: 10%; pest or weed control at 70 g/ha [6]: 20%; pest or weed control at 280 g/ha [6]: 80%; GR80 Value HELAN [6]: 341 g ai/ha
COC(=O)c1nc(C(C)CF)cc(N)c1Cl (centres unmarked) [Compound F20, methyl 4-amino-3-chloro-6-(1-fluoropropan-2-yl)picolinate]	–	0	–	0	–	30	–	–	95	–	–	95	–	–	80	–	–	0	–	50	–
